Results published in the NIST ThermoML archive (doi:10.1021/je030136n).

Assay: xn = mol fraction of the nth substance listed
Details: Liquid, Pulse-echo method

CCCCCCC [heptane] + CCCO
Details	speed of sound [m/s]
298.17 K, 30400 kPa, x2 = 0.3008	1319.3
298.17 K, 45590 kPa, x2 = 0.3008	1394.1
298.17 K, 60790 kPa, x2 = 0.3008	1461.5
298.17 K, 60790 kPa, x2 = 0.7986	1471.8
298.17 K, 75990 kPa, x2 = 0.1008	1526.8
298.17 K, 75990 kPa, x2 = 0.3008	1523.2
298.17 K, 75990 kPa, x2 = 0.7986	1529.5
298.17 K, 91190 kPa, x2 = 0.1008	1584.5
298.17 K, 91190 kPa, x2 = 0.7016	1580.7
298.17 K, 111450 kPa, x2 = 0.7016	1647.6
298.18 K, 100 kPa, x2 = 0.3008	1128.6
298.18 K, 100 kPa, x2 = 0.6027	1144.3
298.18 K, 45590 kPa, x2 = 0	1400.1
298.18 K, 60790 kPa, x2 = 0.1008	1464.2
298.18 K, 60790 kPa, x2 = 0.7016	1467.2
298.18 K, 75990 kPa, x2 = 0.7016	1526
298.18 K, 101320 kPa, x2 = 0.7016	1614.9
298.18 K, 111450 kPa, x2 = 0.1008	1655.1
298.18 K, 121580 kPa, x2 = 0.7016	1678.9
298.19 K, 30400 kPa, x2 = 0.6027	1326.4
298.19 K, 45590 kPa, x2 = 0.6027	1398.6
298.19 K, 45590 kPa, x2 = 0.7016	1403
298.19 K, 60790 kPa, x2 = 0	1468.7
298.19 K, 91190 kPa, x2 = 0.3008	1580.1
298.19 K, 91190 kPa, x2 = 0.6027	1579
298.2 K, 100 kPa, x2 = 0.7016	1154
298.2 K, 30400 kPa, x2 = 0.7016	1332.1
298.2 K, 121580 kPa, x2 = 0.7986	1679.9
298.22 K, 75990 kPa, x2 = 0.6027	1523.5
298.23 K, 60790 kPa, x2 = 0.6027	1463.6
298.25 K, 101320 kPa, x2 = 0.7986	1616.7
298.26 K, 91190 kPa, x2 = 0.7986	1583
303.06 K, 100 kPa, x2 = 0	1108.9
303.07 K, 45590 kPa, x2 = 0	1384.4
303.08 K, 60790 kPa, x2 = 0.6027	1449.5
303.08 K, 101320 kPa, x2 = 0.6027	1601.2
303.09 K, 101320 kPa, x2 = 0.7986	1604.9
303.1 K, 75990 kPa, x2 = 0.7986	1516.7
303.1 K, 91190 kPa, x2 = 0.7986	1570.9
303.1 K, 101320 kPa, x2 = 0	1612.6
303.1 K, 111450 kPa, x2 = 0.6027	1634.7
303.1 K, 121580 kPa, x2 = 0	1681.2
303.11 K, 111450 kPa, x2 = 0.4992	1635.3
303.11 K, 121580 kPa, x2 = 0.4992	1667.7
303.11 K, 121580 kPa, x2 = 0.7986	1668.6
303.12 K, 100 kPa, x2 = 0.7986	1147.6
303.12 K, 30400 kPa, x2 = 0.7986	1324.1
303.12 K, 45590 kPa, x2 = 0.7016	1388.2
303.12 K, 45590 kPa, x2 = 0.7986	1394.5
303.12 K, 101320 kPa, x2 = 0.4992	1601.3
303.12 K, 111450 kPa, x2 = 0.7986	1637.5
303.12 K, 121580 kPa, x2 = 0.7016	1667.3
303.13 K, 30400 kPa, x2 = 0	1307
303.13 K, 30400 kPa, x2 = 0.7016	1316.2
303.13 K, 60790 kPa, x2 = 0.7986	1458.1
303.13 K, 75990 kPa, x2 = 0.7016	1512.7
303.13 K, 91190 kPa, x2 = 0.4992	1565.8
303.13 K, 91190 kPa, x2 = 0.7016	1567.8
303.13 K, 101320 kPa, x2 = 0.7016	1602.5
303.13 K, 111450 kPa, x2 = 0.7016	1635.6
303.14 K, 100 kPa, x2 = 0.7016	1134.5
303.14 K, 30400 kPa, x2 = 0.4992	1306.5
303.14 K, 30400 kPa, x2 = 0.6027	1310
303.14 K, 60790 kPa, x2 = 0.7016	1453.1
303.14 K, 75990 kPa, x2 = 0.4992	1509.2
303.14 K, 91190 kPa, x2 = 0.6027	1565.9
303.15 K, 100 kPa, x2 = 0.6027	1124
303.15 K, 45590 kPa, x2 = 0.6027	1383.2
303.15 K, 60790 kPa, x2 = 0.4992	1448
303.15 K, 75990 kPa, x2 = 0.6027	1509.9
303.15 K, 111450 kPa, x2 = 0	1647.6
303.16 K, 100 kPa, x2 = 0.4992	1116
303.16 K, 15200 kPa, x2 = 0.1008	1213.6
303.16 K, 45590 kPa, x2 = 0.4992	1380.9
303.16 K, 121580 kPa, x2 = 0.3008	1669.9
303.17 K, 15200 kPa, x2 = 0	1218.6
303.17 K, 75990 kPa, x2 = 0	1517.2
303.17 K, 101320 kPa, x2 = 0.1008	1607.1
303.17 K, 101320 kPa, x2 = 0.3008	1602.4
303.18 K, 60790 kPa, x2 = 0	1453.7
303.18 K, 91190 kPa, x2 = 0	1575.7
303.18 K, 111450 kPa, x2 = 0.1008	1642
303.18 K, 121580 kPa, x2 = 0.6027	1666.6
303.19 K, 121580 kPa, x2 = 0.1008	1675.4
303.2 K, 100 kPa, x2 = 0.3008	1107.1
303.2 K, 30400 kPa, x2 = 0.3008	1301.8
303.2 K, 60790 kPa, x2 = 0.1008	1448.8
303.21 K, 30400 kPa, x2 = 0.1008	1301.9
303.21 K, 45590 kPa, x2 = 0.1008	1379.3
303.21 K, 60790 kPa, x2 = 0.3008	1446
303.21 K, 75990 kPa, x2 = 0.1008	1512.1
303.21 K, 75990 kPa, x2 = 0.3008	1508.5
303.21 K, 91190 kPa, x2 = 0.1008	1570.5
303.21 K, 91190 kPa, x2 = 0.3008	1566.1
303.22 K, 100 kPa, x2 = 0.1008	1103.8
303.23 K, 45590 kPa, x2 = 0.3008	1377.7
303.25 K, 111450 kPa, x2 = 0.3008	1636.9
